Experimental data taken from US12337001B2, “Neutral endopeptidase (NEP) and human soluble endopeptidase (hSEP) inhibitors to reduce detrimental effects of perfusion deficiency of parenchymal organs” (priority 2018, dated 2025).

System: rats subjected to transient bilateral occlusion of the common carotid artery (BCCA)
Assay: Open field test of exploratory performance after transient bilateral occlusion of the common carotid artery (BCCA)
Assay type: in vivo, rat
Conditions: for Ambulation / Blocks (episodes of interest in blocks) / Defecation / Grooming / Rearing: 60 mg/kg/d s.c. osmotic minipump, open field 5 min, x ± SEM
[1] = BCCA + (6) group, 60 mg/kg/d, 5 days after BCCA
[2] = BCCA + (6): BCCA 30 min, 5 days after BCCA
[3] = Control + (6) group (reference = 100)
[4] = Control + (6): sham-operated Wistar rats

O=C(O)CN1C(=O)[C@@H](NC(=O)C2(C[C@@H](CCc3ccccc3)C(=O)O)CCCC2)CCc2ccccc21 [Compound (6), (2R)-2-{[1-({[(3S)-1-(carboxymethyl)-2-oxo-2,3,4,5-tetrahydro-1H-1-benzazepin-3-yl]amino}carbonyl)cyclopentyl]methyl}-4-phenylbutanoic acid]
Ambulation, % of sham-operated controls [1]: 94.81% | Blocks (episodes of interest in blocks), % of sham-operated controls [1]: 103.80% | Defecation, % of sham-operated controls [1]: 82.54% | Grooming, % of sham-operated controls [1]: 112.83% | Rearing, % of sham-operated controls [1]: 104.62% | Ambulation [2]: 2741 ± 4.25 (n) | Blocks (episodes of interest in blocks) [2]: 7.64 ± 2.54 (n) | Defecation [2]: 1.04 ± 0.45 (n) | Grooming [2]: 5.98 ± 1.06 (n) | Rearing [2]: 12.01 ± 3.86 (n) | Ambulation, % of Control + (6) [3]: 100% | Blocks, % of Control + (6) [3]: 100% | Defecation, % of Control + (6) [3]: 100% | Grooming, % of Control + (6) [3]: 100% | Rearing, % of Control + (6) [3]: 100% | Ambulation [4]: 28.91 ± 5.13 (n) | Blocks (episodes of interest in blocks) [4]: 7.36 ± 2.85 (n) | Defecation [4]: 1.26 ± 0.45 (n) | Grooming [4]: 5.30 ± 1.57 (n) | Rearing [4]: 11.48 ± 3.51 (n) | Exploratory performance in rats subjected to BCCA (open field test, 60 mg/kg/d, result in words, 60 mg/kg/day): statistically significant improvement
